Test results taken from patent publication US12194027B2, “Small molecule inhibitors of GPCR GPR68 and related receptors for treating cancer, glioblastoma, and other indications” (UNIVERSITY OF MARYLAND, BALTIMORE, priority 2019, dated 2025).

Tests used:
GPR68/OGR1 = GPR68/OGR1 (Homo sapiens (Human), UniProt Q15743); assay: inhibition of GPR68/OGR1 in CHEM1-OGR1 cells, Fluo-8 calcium response to acidified media; format: cell-based; conditions: acidified media pH 6.4, Fluo-8
Protocol: Briefly, the methods were: On the day before the assay 20,000 cells per well of CHEM1-OGR1 cells were plated in 10% DMEM containing 10% FBS and 1% Pen/Strep into a 96 well plate. After 24 hours media was removed and cells were stained with 80 uL Fluo-8 calcium indicator dye according to manufacturer's protocol. After staining cells were treated with 20 uL of 4× concentration of test compounds. Using kinetic imaging in the Lionheart HCS fluorescence intensity was continuously measure at 10 frames per second, for 5 seconds before 100 μL of acidified media was added to the well resulting in a pH of 6.4. A ratio of fluorescence intensities prior to addition and at peak were calculated and averaged. The resulting data were platted and using a 4 parameter logistic regression EC50 for each test compound was determined.

GPR68 [1] = biological target: T1, GPR68 (Homo sapiens (Human), UniProt Q15743); assay: GPR68 inhibitory activity of OGM analogs (Table 5); format: cell-based
Protocol: GPCR profiling assays were performed by Millipore (St. Louis, MO) using in cells expressing Gα15, a promiscuous G protein that enhances GPCR coupling to downstream Ca2+ signaling pathways.
Since GPCRs represent >30% of targets for FDA-approved small molecules and are known to modulate cell migration, activity against 158 GPCRs was assessed based on their chemical structures. GPCRs (158) were tested for agonist and antagonist activity at 10 μM. […] Chemical segregation analysis of zebrafish phenotype was conducted to further identify the inhibitory activity responsible for the zebrafish phenotype. […] The identities of the R groups in FIG. 2B are shown below in Table 5.
(§1) Chem1-GPR68 reporter cells were treated with 20 uM OM8345 for 2 hours and then rinsed with HBSS. […] The GPR68 inhibitory activity of OGM analogs segregated with the ability of the molecule to induce the phenotype in zebrafish. Neural crest progenitors labeled with In situ hybridization of FoxD3 show normal formation of the progenitor pool.

GPR68 [2] = biological target: T1, GPR68; assay: Chem-1 OGR1/GPR68 recovery assay after inhibitor washout; format: cell-based
Protocol: Chem-1 OGR1/GPR68 cells from Millipore™ (St. Louis, MO) were plated in 96-well format and stained with Fluo-8. Using the Lionheart FX (Biotek™) a baseline for 3 seconds was observed before the medium was acidified using an automated injector to reach pH 6.8. Cells then were dynamically monitored and change in fluorescence was quantified using Gen5 software (Biotek™). Pretreatment of 10 μM OGM2 for 4 hours was used. Each well was only assayed once at the correct time interval after inhibitor removal.
as §1
Additional experiments, OGM2 resynthesized and used (due to its submicromolar potency and GPR68 specificity) were performed. See FIG. 3A (HNMR of resynthesis of OGM2) and FIG. 3B (LCMS of resynthesis of OGM2). To test the possibility of OGM2 being an irreversible inhibitor, Chem1-OGR1 cells (Millipore™) were incubated with 10 μM OGM2 for 4 hours, and after removing the compound stimulated with pH 6.4 medium. […] Time till 50% max ˜52 minutes. The signal returned back towards baseline uninhibited levels in a rapid and time-dependent manner.

U87 glioblastoma cells = assay: calcium release on acidification in U87 cells (Fluo-8); format: cell-based; conditions: media pH6.4, Fluo-8
Source text: GPR68 is known to signal through Gq which results in a calcium flux out of the Endoplasmic reticulum. U87 glioblastoma cells were stained, using a calcium-sensitive vital dye Fluo-8, and stimulated with acidification of the media to pH6.4. The cells respond to the acidification with a burst of calcium release, this is inhibited by OGM2.

A2058 melanoma cell line = assay: scratch assay for migration, A2058; format: cell-based, human; conditions: OGM 5 μM, EIPA 10 μM, 20 hours
Protocol: (§2) Cells were grown to confluence and the cells were denuded with a P200 tip. A medium change was done to add fresh medium, remove loose cells and add compounds OGM (5 μM) and EIPA (10 μM). The area of the scratch was observed 20 hours later.
(§3) Since there are numerous parallels are found between neural crest cells and cancer during migration, we examined whether OGM could inhibit the migration of cells in human melanoma cell lines (Oppitz et al., 2007; Schriek et al., 2005; Sinnberg et al., 2018). […] A2058, MeWo and WM115 cells were grown to confluence and a stripe of cells were denuded with a p200 pipette tip “scratch” and rinsed with PBS. Cells were treated with OGM or EIPA, or DMSO and incubated in low serum media. Imaging was done at 30 minutes after “scratch” and then 20 hours afterwards. Areas were then measured and normalized to the initial area.
(§4) Previous studies with the MV3 melanoma cell line have shown that disruption of proton efflux with EIPA inhibition of NHE1 can also reduce melanoma motility (Ludwig et al., 2013; Schneider et al., 2009; Stock et al., 2007, 2005; Stüwe et al., 2007). […] Although the expression of GPR68 and other proton-sensing receptors have been characterized in various skin cancers (Merkel cell carcinoma, dermatofibrosarcoma protuberans, atypical fibroxanthoma, and pleomorphic dermal sarcoma), expression in melanoma cell lines has not investigated (Nassios et al., 2019).

MeWo melanoma cell line = assay: scratch assay for migration, MeWo; format: cell-based, human; conditions: OGM 5 μM, EIPA 10 μM, 20 hours
Protocol: as §2, §3, §4

WM115 melanoma cell line = assay: scratch assay for migration, WM115; format: cell-based, human; conditions: OGM 5 μM, EIPA 10 μM, 20 hours
Protocol: as §2, §3, §4

[3] = test system: U87 glioblastoma spheroids; assay: matrix invasion of U87 spheroids in Matrigel, acidified media; format: cell-based
Source text: U87 glioblastoma spheroids were formed in low attachment round bottom plates for 3 days. Spheroids were then covered in Matrigel™, which was allowed to polymerize before treatment with acidified media with or without OGM2. Acidification increased the degree of matrix invasion which is attenuated by OGM2.

Spheroids = assay: pH dependent tumoroid growth; format: cell-based; conditions: pH 6.2 vs pH 8 buffered media, 3 days
Protocol: Spheroids were formed over 3 days using low attachment 96-well round bottom plates and then treated with DMSO or OGM2 in either pH 8 buffered media or pH 6.2 buffered media and grown for 3 days. The size (area) of spheroids was measured in relative area units. […] This increase in growth was abrogated by OGM2.

PANC02 pancreatic cells [4] = assay: PANC02 scratch migration; format: cell-based; conditions: 10 μM, 24 hours
Protocol: In a second study, PANC02 pancreatic cells plated and grown to confluence. Using a P200 tip, cells were denuded and allowed to migrate for 24 hours in DMSO or 10 μM OGM2 and imaged.

PANC02 pancreatic cells [5] = assay: PANC02 clonogenicity (crystal violet); format: cell-based; conditions: 7 days
Protocol: In a third study, PANC02 pancreatic cells were plated at 400 cells per well in a 6-well plate and on the next day were treated with increasing concentrations of OGM2 for 7 days. The plate was fixed with formalin and stained with crystal violet.

A549 lung cancer cells [6] = assay: A549 viability (crystal violet); format: cell-based; conditions: 24 hours
Protocol: A549 lung cancer cells were plated at different concentrations of cell per well in a 96-well plate. On the following day cells were treated with increasing doses of OGM2. Twenty-four hours later cells viability was assayed with crystal violet and normalized to untreated.

A549 lung cancer cells [7] = assay: A549 clonogenicity (crystal violet); format: cell-based; conditions: 8 days
Protocol: A549 lung cancer cells were plated at 300 cells per well in a 6-well plate and on the next day were treated with increasing concentrations of OGM2 for 8 days. The plate was fixed with formalin and stained with crystal violet. See FIG. 25B for results at the indicated concentrations.

breast (MDA MB231) = assay: viability (cell titer blue), breast cancer cells; format: cell-based; conditions: MDA MB231, 72 hours
Protocol: (§5) Multiple studies were conducted as discussed herein, but with different cancer type cohorts. Data was extracted from Gene expression omnibus using ProggeneV2. Briefly, probes were prepared using standard Affymetrix™ protocols, and hybridized to Affymetrix™ HG-U133A and HG-U133B arrays. The cohort was separated by High and low expression of GPR68 by above or below the median expression level. Survival of the cohorts was plotted in FIG. 26A. Survival of multiple cancer types including breast (MDA MB231), glioblastoma (U87), and Prostatic Neuroendocrine cancer (PNEC: PC3) is shown in FIG. 26B. Cells were plated in 96-well plates and then treated with increasing doses OGM2. Seventy-two hours later, survival was assayed with cell titer blue. Each cell line was normalized to DMSO treated control.

[8] = test system: Prostatic Neuroendocrine cancer (PNEC: PC3); assay: viability (cell titer blue), prostate cancer cells; format: cell-based; conditions: PC3, 72 hours
Protocol: as §5

U87 cells = assay: U87 viability with temozolomide plus OGM2; format: cell-based; conditions: 0.5 μM or 5 μM OGM2 with increasing TMZ
Protocol: U87 cells were treated with increasing concentrations of temozolomide (TMZ) without OGM2 or with 0.5 μM or 5 μM OGM2.

T1 sequence (Q15743 whole entry, looked up): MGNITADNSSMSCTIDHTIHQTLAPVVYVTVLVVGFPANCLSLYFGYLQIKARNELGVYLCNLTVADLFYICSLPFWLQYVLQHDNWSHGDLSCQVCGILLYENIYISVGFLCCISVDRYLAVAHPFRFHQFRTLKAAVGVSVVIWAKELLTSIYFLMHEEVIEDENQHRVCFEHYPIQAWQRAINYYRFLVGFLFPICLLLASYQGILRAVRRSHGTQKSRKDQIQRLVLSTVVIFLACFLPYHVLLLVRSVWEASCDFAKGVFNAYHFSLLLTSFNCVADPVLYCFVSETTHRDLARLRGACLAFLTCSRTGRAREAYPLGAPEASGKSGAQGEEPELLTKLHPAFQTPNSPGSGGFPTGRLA
GPR68/OGR1, sequence (Q15743 whole entry): as the sequence (Q15743 whole entry, looked up) above

SMILES: CCc1ccc2c(c1)C1(NN=C(c3ccccc3)S1)C(=O)N2 (centres unmarked) [OGM2]
- EC50 (GPR68/OGR1): 1350 nM
- IC50 (GPR68 [1]): 710 nM
- recovery of GPR68 activity after washout (GPR68 [2]; 10 μM for 4 hours, then removed): restored rapidly after washout of inhibitor
- Time till 50% max (recovery of GPR68 activity) (GPR68 [2]; after 10 μM for 4 hours, washout, pH 6.4 medium): ~52 min
- calcium release in response to acidification (U87 glioblastoma cells): inhibited
- migration in scratch assay (A2058 melanoma cell line): migrated significantly less
- migration in scratch assay (MeWo melanoma cell line): migrated significantly less
- migration in scratch assay (WM115 melanoma cell line): migrated significantly less
- degree of matrix invasion [3]: attenuated
- increase in spheroid growth at pH 6.2 (Spheroids): abrogated
- migration (PANC02 pancreatic cells [4]): significantly reduced migration
- clonogenicity (PANC02 pancreatic cells [5]): reduced the clonogenicity
- toxicity (cell viability) (A549 lung cancer cells [6]): relatively High doses of OGM2 are necessary for toxicity
- clonogenicity (A549 lung cancer cells [7]): reduced the clonogenicity
- viability (breast (MDA MB231)): Reduces Viability
- viability [8]: Reduces Viability
- cell viability in combination with temozolomide (TMZ) (U87 cells): synergistic result
